The structures appear in SMILES notation. Like-named read-outs stand apart in the source and are kept apart here.

The nature of data set [1]: In vivo pharmacokinetic parameters (clearance, half-life, AUC).
The subject of the next data set is SUDHL-4. The experiment in a line: Cell cycle profile by FACS (propidium iodide DNA content). In kind it is cell-based. The note with it: SUDHL-4, 48 hr treatment. As for the experimental part:
Lymphoma cell line cells were treated with the KSP inhibitors of the invention and analyzed by FACs analysis. Approximately 2×10^5 cells were harvested, cell pellets were washed with cold PBS twice and re-suspended in 500 μL cold PBS. Cells were fixed by adding 8 mL cold 80% ethanol while vortexing slowly. After 15 minutes of incubation fixed cells were washed twice with PBS and cell pellets were re-suspended in 1 mL of PI/RNASE staining buffer (BD Pharmingen™ catalog #550825) and incubated for 15 minutes at 37° C. protected from light. Propidium iodide (PI) is a fluorescent vital dye that stains both DNA and RNA. Therefore the RNA must be removed by digestion with ribonuclease (RNase). Stained cells were passed through a cell strainer into a FACS tube to reduce the number of cell aggregates (BD Falcon #352235) prior to FACS analysis. The DNA content of the fixed and stained cells was analyzed by the BD FACSCalibur flow cytometer using the CellQuest software.
Following mitotic arrest, cells have several options including coming out of arrest and dividing normally, undergoing apoptosis directly, or exiting mitosis without cytokinesis (a phenomenon called mitotic slippage). If cells undergo mitotic slippage, they can enter a pseudo-G1 and then either continue to cycle, senesce, or undergo apoptosis. […]
On the technique in general: Flow cytometry measures light scatter and fluorescence of single cells or particles in a stream.

A further data set deals with COLO 205. Briefly: CellTiter-Glo, NCI60 panel. Format: cell-based, human. The note with it: Colon; for GI50: Homo sapiens. The source says:
(§1) Identification of tumor types that are the most sensitive to the KSP inhibitors of the present invention can be accomplished using an unbiased approach that uses several cell-based assays. The assays chosen were as follows: • CellTiter-Glo®. This is an assay designed to measure ATP concentration in a cell culture, and can be correlated to cell number. Briefly CellTiter-Glo® (Promega Corporation) is a homogeneous method using the single CellTiter-Glo® reagent to detect ATP wherein ATP in the assay drives the activity of a thermostable luciferase to create a luminescent signal which can then be measured and correlated with the number of viable cells. Briefly, for adherent cells, 1,000 to 5,000 cells/well were plated in 96-well plates (100 μl/well) and let to adhere for 24 hours before being treated with drug. For non-adherent cells, 1,000 to 10,000 cells/well were plated in 96-well plates (100 μl/well) and immediately treated with drug. Drug dilutions were prepared in DMSO at 1000 times the final concentration. These dilutions were then diluted 1/100 in growth media before being added to the cells (11 μl/well) to achieve the desired final concentration. After 48 h in a 37° C. tissue culture incubator, the plates were processed for the CellTiter-Glo®assay according to the manufacturer's instructions. Protocol for a 72 hour cell proliferation assay: The 72 hour assay was performed the same way as the 48 hour assay except for the following modifications: For adherent cells, 500 to 5,000 cells/well were plated in 96-well plates (90 μl/well cell growth media) and left to adhere for 24 hours before being treated with drug. For non-adherent cells, 1,000 to 10,000 cells/well were plated in 96-well plates (90 μl/well cell growth media) and immediately treated with drug. Data values presented represent the concentration of test compound required for a 50% reduction in growth. • LDH release. The Cytotoxicity Detection KitPLUS (LDH) assay (Roche Diagnostics, Manheim, Germany) measures the amount of LDH released in the media by dying cells; LDH catalyzes the conversion of lactate into pyruvate. The enzymatic reaction is coupled to a chemical reaction that uses a tetrazolium salt to form a formazan that is red and can be detected by its absorbance at 490 nm. This assay measures the amount of cell death after drug treatment. Cells were plated at 10,000 cells/well in 96-well plates (100 μl/well). Adherent cells were let to adhere for 24 hours before being treated with drug, whereas non-adherent cells were immediately treated with drug. Drug dilutions were prepared in DMSO at 1000 times the final concentration. These dilutions were then diluted 1/100 in growth media before being added to the cells (11 μl/well) to achieve the desired final concentration. After 48 h in a 37° C. tissue culture incubator, the plates were processed for the Cytotoxicity Detection KitPLUS (LDH) assay according to the manufacturer's instructions. The media only values were subtracted from all the data points before analysis. Data values presented correspond to the compound concentration wherein LDH output is at half maximal level. • Caspase-Glo® 3/7. The Caspase-Glo® 3/7 Assay (Promega Corporation) is a homogeneous luminescent assay that measures caspase-3/7 activities. The assay provides a proluminescent caspase-3/7 DEVD-aminoluciferin substrate and a thermostable luciferase in a reagent optimized for caspase-3/7 activity, luciferase activity and cell lysis. Adding the single Caspase-Glo® 3/7 Reagent results in cell lysis, followed by caspase cleavage of the substrate. This liberates free aminoluciferin, which is consumed by the luciferase, generating a luminescent signal. The signal is proportional to caspase-3/7 activity. Data values presented correspond to the compound concentration wherein caspase 3/7 activity is at half maximal level. […]
(In general: In ATP-based viability assays light output follows the ATP content of the culture.)

The subject of a further data set is HT29. The experiment in a line: CellTiter-Glo, NCI60 panel. Format: cell-based, human. The note with it: for GI50: Homo sapiens, HT-29, Colon.
Text: as §1

The test system of a further data set is HCT-116. Briefly: CellTiter-Glo, NCI60 panel. In kind it is cell-based, human. The note with it: Colon; for GI50: Homo sapiens.
Text: as §1

The test system of the next data set is HCT-15. The experiment in a line: CellTiter-Glo, NCI60 panel. The note with it: Colon; for GI50: Homo sapiens. In kind it is cell-based, human.
Text: as §1

The test system of another data set is T-47D. Briefly: CellTiter-Glo, NCI60 panel. The note with it: Breast; for GI50: Homo sapiens, T47D. In kind it is cell-based, human.
Text: as §1

The mark [2] stands for this setting: GI50 in nM, read-out: Log(GI50) (converted).

Consider `CC(C)(C)[C@H](c1nc(-c2cc(F)ccc2F)cn1Cc1ccccc1)N(CC[C@H](N)CF)C(=O)CO` [Compound IIa], for which the AUC in data set [1] was 1930 ng·h/mL. In data set [1], this compound had a half-life of 1.83 h. The clearance in data set [1] (read-out: In vivo Clearance rate) came to 41 mL/min/kg. The “cell cycle profile (DNA content, FACS)” value in the data set on SUDHL-4 is given as “underwent apoptosis after 48 hr treatment”. Also, the “Differential vs mean Log(GI50)” value with COLO 205 is reported as −0.669; with HT29 (Colon), −0.669; with HCT-116, 1.191; in the data set with HCT-15, 0.754; with T-47D it was −0.669. Moreover, the GI50 is 10 nM in the data set on COLO 205 (setting [2]); 10 nM in the data set on COLO 205 (read-out: GI50); 10 nM in the data set on HT29 (setting [2]); 10 nM with HT29 (read-out: GI50); 0.138 nM in the data set with HCT-116 (setting [2]); 0.138 nM in the data set with HCT-116 (read-out: GI50). Further, the GI50 with HCT-15 (setting [2]) was 0.378 nM; in the data set with HCT-15 (read-out: GI50), 0.378 nM; with T-47D (setting [2]), 10 nM; in the data set with T-47D (read-out: GI50), 10 nM.

The term AUC denotes concentration integrated over time. A high value points to high exposure. As usually defined, the half-life is the time needed for the level to fall by half in the phase considered. A high value points to slow decline. By clearance is commonly meant the rate of elimination divided by the concentration. By GI50 is commonly meant the concentration at which growth is held to half of that of the control.

The record behind these values is patent US8252832B2, “Kinesin inhibitors as cancer therapeutics” (Novartis AG, priority 2007, dated 2012).
